Values quoted from earlier work as cited in US20060067952A1, “Low oil emulsion compositions for delivering taxoids and other insoluble drugs” (SD Pharmaceuticals, Inc., priority 2004, published 2006).
Read-outs that look alike come from different tables or passages of the source.

Settings: 25° C.

CC(=O)Oc1ccccc1C(=O)O [aspirin]
Volume of solvent required to dissolve 1 gram of the drug (H2O): 300 mL
Volume of solvent required to dissolve 1 gram of the drug (ethanol): 5 mL
